Measured values published in ChEMBL document CHEMBL1201862, “PubChem BioAssay data set” (2004).
Activity calls are given as the source filed them.

Experiments:
[1] = NIH/3T3 fibroblast cytotoxicity, dose response, cytotoxicity control, cell-based, plate reader, dry powder, set 2 (AID 652280); assay type: functional; conditions: NIH3T3
[2] = molecular target: Vasopressin V2 receptor (Homo sapiens, UniProt P30518); test: Late-stage results from the probe development effort to identify antagonists of arginine vasopressin receptor 1a (AVPR1a): fluorescence-based cell-based dose response AVPR2 inhibition counterscreen assay.; assay type: functional
Chain of Vasopressin V2 receptor (P30518 whole entry): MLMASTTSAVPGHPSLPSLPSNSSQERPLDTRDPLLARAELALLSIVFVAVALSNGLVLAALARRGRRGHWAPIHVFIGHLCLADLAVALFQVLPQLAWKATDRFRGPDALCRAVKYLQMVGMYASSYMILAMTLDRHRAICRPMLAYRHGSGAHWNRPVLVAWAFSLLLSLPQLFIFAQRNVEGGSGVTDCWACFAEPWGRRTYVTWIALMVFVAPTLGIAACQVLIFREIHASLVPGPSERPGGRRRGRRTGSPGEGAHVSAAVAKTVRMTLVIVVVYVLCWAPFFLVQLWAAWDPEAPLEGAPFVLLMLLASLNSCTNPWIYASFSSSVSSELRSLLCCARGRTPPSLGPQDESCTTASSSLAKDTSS

[3] = Late-stage results from the probe development effort to identify antagonists of arginine vasopressin receptor 1a (AVPR1a): fluorescence-based cell-based dose response OXTR inhibition counterscreen assay.; assay type: functional
[4] = Late-stage results from the probe development effort to identify antagonists of arginine vasopressin receptor 1a (AVPR1a): fluorescence-based cell-based dose response AVPR1a inhibition assay.; assay type: functional
[5] = molecular target: Vasopressin V1b receptor (Homo sapiens, UniProt P47901); test: Late-stage results from the probe development effort to identify antagonists of arginine vasopressin receptor 1a (AVPR1a): fluorescence-based cell-based dose response AVPR1b inhibition counterscreen assay.; assay type: functional
Chain of Vasopressin V1b receptor (P47901 whole entry): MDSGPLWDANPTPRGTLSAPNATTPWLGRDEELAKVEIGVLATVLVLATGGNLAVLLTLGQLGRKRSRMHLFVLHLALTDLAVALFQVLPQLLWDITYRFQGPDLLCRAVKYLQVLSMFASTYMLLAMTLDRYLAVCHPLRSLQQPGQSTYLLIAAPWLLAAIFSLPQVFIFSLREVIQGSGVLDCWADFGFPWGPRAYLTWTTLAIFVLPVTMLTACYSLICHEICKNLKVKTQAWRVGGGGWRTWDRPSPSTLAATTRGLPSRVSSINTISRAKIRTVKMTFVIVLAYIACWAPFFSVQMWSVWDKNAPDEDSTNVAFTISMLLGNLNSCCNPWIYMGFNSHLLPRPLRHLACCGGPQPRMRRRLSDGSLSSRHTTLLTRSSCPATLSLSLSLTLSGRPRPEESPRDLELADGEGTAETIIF

[6] = P. falciparum Dd2 growth inhibitors, dose response, SYBR Green, dry powder samples, set 9 (AID 1159568); assay type: functional, cell-based
[7] = inhibitors of PGC1a acetylation in cells, dose response, cell-based, cherry-picked samples (AID 720514); assay type: functional;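 further: potency may reflect raised or lowered acetylation signal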
[8] = A549 cell cytotoxicity, dose response, cytotoxicity control, 24 h, CellTiter-Glo luminescence, cherry-picks (AID 1053115); assay type: functional, cell-based; conditions: A549, 24 h
[9] = cells
[10] = molecular target: T1, Oxysterols receptor LXR-beta (Homo sapiens, UniProt P55055); assay type: functional, cell-based;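 further: Cell-based luminescence dose-response assay of agonist activity at LXR, run as a confirmatory counterscreen to a daf-12 agonist screen; HEK293 cells with Gal4-LXR fusion and GAL4-driven luciferase reporter; agonist potency from rising luciferase signal of a Gal4-LXR reporter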
T1 sequence (P55055 whole entry): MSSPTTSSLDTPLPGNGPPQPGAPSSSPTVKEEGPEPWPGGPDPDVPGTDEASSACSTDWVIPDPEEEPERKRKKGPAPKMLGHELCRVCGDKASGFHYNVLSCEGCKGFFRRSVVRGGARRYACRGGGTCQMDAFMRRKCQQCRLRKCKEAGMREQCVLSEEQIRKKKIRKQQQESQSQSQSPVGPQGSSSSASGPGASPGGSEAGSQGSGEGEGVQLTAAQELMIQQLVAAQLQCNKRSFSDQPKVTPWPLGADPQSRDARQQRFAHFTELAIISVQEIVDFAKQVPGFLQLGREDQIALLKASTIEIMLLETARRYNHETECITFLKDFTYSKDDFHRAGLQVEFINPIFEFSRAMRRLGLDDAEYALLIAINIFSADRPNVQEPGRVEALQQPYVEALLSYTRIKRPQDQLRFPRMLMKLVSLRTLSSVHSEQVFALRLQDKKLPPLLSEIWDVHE

[11] = A549 cell cytotoxicity, dose response, cytotoxicity control, plate reader, dry powder, set 6 (AID 743312); assay type: functional, cell-based
[12] = HepG2 cell cytotoxicity, dose response, cytotoxicity control, plate reader, dry powder, set 6 (AID 743311); assay type: functional, cell-based
[13] = molecular target: T2, Low molecular weight phosphotyrosine protein phosphatase (Homo sapiens, UniProt P24666); test: LMPTP phosphatase inhibitors, colorimetric pNPP readout, dose response, orthogonal assay, biochemical, absorbance, pNPP substrate, LMPTP-A isoform, set 2 (AID 743308); assay type: functional
T2 sequence (P24666 whole entry): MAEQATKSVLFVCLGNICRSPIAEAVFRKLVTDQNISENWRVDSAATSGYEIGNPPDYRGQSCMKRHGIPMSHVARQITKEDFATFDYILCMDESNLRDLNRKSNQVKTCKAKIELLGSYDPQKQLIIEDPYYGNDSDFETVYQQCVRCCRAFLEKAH

[14] = molecular target: T2, Low molecular weight phosphotyrosine protein phosphatase; test: LMPTP phosphatase inhibitors, dose response, biochemical, OMFP substrate, fluorescence intensity, set 2 (AID 743307); assay type: functional
[15] = P. falciparum 3D7-ScDHODH growth inhibitors, dose response, SYBR Green, dry powder samples (AID 1159570); assay type: functional, cell-based;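 further: parasite growth measured after 72 hours of compound exposure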
[16] = P. falciparum Dd2 growth inhibitors, dose response, SYBR Green, cherry-picked samples (AID 1159567); assay type: functional, cell-based
[17] = P. falciparum Dd2 growth inhibitors, dose response, SYBR Green, dry powder samples (AID 1159566); assay type: functional, cell-based;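 further: potency for growth inhibition with lower SYBR green DNA signal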
[18] = P. falciparum ATP4 D1247Y mutant growth inhibitors, dose response, NITD609-resistant line, SYBR Green, dry powder (AID 1159571); assay type: functional, cell-based;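 further: parasites synchronized at ring stage by sorbitol before testing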
[19] = antifungal activity, alamar blue, dry powder, counter-screen for C. neoformans cell wall antifungals, dose response (AID 743128); assay type: functional, organism-based
[20] = molecular target: Phospholipase D2 (Homo sapiens, UniProt O14939); test: PLD2 Cellular Concentration Response Study.; assay type: functional
Chain of Phospholipase D2 (O14939 whole entry): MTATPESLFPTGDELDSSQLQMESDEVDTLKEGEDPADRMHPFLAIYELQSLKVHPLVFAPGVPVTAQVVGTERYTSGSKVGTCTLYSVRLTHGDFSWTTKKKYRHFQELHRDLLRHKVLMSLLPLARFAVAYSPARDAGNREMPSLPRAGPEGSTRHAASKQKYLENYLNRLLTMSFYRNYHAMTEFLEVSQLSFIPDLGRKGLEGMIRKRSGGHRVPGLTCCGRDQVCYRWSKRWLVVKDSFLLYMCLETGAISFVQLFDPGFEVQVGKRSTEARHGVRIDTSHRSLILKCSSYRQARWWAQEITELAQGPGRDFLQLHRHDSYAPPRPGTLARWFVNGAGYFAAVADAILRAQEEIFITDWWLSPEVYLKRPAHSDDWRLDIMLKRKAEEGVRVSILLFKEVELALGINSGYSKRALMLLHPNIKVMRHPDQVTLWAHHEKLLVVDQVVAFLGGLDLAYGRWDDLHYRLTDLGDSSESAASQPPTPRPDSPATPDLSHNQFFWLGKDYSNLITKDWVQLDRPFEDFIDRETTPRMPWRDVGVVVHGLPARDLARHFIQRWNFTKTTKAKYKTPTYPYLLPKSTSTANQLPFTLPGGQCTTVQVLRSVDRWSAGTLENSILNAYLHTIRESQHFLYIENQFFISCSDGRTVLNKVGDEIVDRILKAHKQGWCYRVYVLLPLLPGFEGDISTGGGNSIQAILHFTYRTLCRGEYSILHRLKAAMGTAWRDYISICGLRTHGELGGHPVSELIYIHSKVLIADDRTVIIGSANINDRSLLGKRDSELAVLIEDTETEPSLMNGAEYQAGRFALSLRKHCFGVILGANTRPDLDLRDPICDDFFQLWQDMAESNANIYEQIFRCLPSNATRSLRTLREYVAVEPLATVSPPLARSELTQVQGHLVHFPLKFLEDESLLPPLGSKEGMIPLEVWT

[21] = molecular target: Phospholipase D1 (Homo sapiens, UniProt Q13393); test: PLD1 Cellular Concentration Response Study.; assay type: functional
Chain of Phospholipase D1 (Q13393 whole entry): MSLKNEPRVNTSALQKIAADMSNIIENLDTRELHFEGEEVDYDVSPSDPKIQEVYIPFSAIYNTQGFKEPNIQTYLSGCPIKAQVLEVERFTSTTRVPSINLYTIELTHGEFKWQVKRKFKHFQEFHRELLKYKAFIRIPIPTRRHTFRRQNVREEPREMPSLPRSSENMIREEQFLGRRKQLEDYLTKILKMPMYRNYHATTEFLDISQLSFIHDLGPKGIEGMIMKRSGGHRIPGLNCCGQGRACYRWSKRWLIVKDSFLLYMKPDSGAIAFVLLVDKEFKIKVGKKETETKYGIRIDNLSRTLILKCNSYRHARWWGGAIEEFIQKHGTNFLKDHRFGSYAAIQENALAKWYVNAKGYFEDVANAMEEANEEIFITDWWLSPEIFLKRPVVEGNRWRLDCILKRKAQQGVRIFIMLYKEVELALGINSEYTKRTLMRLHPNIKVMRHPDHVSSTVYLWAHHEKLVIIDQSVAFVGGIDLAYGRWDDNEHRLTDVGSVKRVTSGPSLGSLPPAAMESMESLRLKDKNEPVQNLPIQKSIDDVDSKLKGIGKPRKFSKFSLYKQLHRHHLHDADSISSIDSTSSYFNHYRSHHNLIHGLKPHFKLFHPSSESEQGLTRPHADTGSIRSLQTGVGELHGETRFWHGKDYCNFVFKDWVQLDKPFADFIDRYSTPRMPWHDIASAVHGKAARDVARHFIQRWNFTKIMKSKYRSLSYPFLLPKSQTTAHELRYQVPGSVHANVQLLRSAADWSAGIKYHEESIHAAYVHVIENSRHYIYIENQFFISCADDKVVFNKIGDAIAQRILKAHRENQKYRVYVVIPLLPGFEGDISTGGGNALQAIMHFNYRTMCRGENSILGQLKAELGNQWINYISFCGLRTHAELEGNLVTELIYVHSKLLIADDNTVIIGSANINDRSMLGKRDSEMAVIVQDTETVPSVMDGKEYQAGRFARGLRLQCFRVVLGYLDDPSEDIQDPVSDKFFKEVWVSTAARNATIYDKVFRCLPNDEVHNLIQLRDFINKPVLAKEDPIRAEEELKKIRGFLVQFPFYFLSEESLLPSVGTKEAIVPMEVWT

[22] = Glucagon-like peptide 1 release potency, NCI-H716 cell line, dose-response, half-maximal inhibitory concentration (AID 1117344); assay type: functional, cell-based
[23] = HeLa 2N DNA content increase, dose response, cell-based, IC50 (AID 1117349); assay type: functional
[24] = half-maximal inhibitory concentration for glucagon-like peptide-1 release, STC-1 cell line, dose-response (AID 1117345); assay type: functional, cell-based
[25] = Dose-response inhibition of insulin secretion in a rat insulinoma line at 5 mM glucose (AID 1117331); assay type: functional, cell-based; conditions: INS-1E
[26] = HeLa 4N DNA content increase, dose response, cell-based, IC50 (AID 1117351); assay type: functional

## CN(C)CC#Cc1cccc(-c2nc(C(=O)Nc3ccc(-c4ccccc4)cc3)cc3c2[C@H](CCO)N([S+]([O-])C(C)(C)C)C3)c1 (stereo partly specified)
[1]
  AC50: 9.5 µM (active)

## O=C(C1CCN(c2cc(C(F)(F)F)ccn2)CC1)N(CC1CC1)c1ccc(Cl)cc1
[2]
  IC50: > 50 µM (inactive)
[3]
  IC50: > 50 µM (inactive)
[4]
  IC50: 0.0367 µM (active)
[5]
  IC50: > 50 µM (inactive)

## Fc1cccc(CN2C[C@@H]3N[C@H](C2)[C@@H]3c2ccc(/C=C/c3ccccc3)cc2)c1
[6]
  AC50: 4.6 µM (active)
[7]
  AC50: 13.4 µM (active)

## CN1c2ccc(-c3ccc(C#N)cc3)cc2[C@@H]2[C@@H](CCN2C(=O)C2CCCCC2)[C@H]1CO
[8]
  AC50: 47.5 µM (active)

## Cc1csc(N/N=C/c2ccccc2F)n1
[9]
  EC50: > 67.6 µM (inactive)
[10]
  EC50: > 67.6 µM (inactive)

## Sc1nc2cccc(Cl)c2n1CCOc1ccccc1
[11]
  AC50: 20.9 µM (active)
[12]
  AC50: > 52 µM (inactive)

## CN(C)CCNc1nc(-c2ccccc2)nc2ccccc12
[13]
  IC50: > 80 µM (inactive)
[14]
  IC50: 58.1 µM (inactive)

## Cc1ccc(-c2ccccc2[C@H]2[C@@H](C#N)N(C(=O)c3cccc(F)c3)[C@H]2CO)cc1
[15]
  AC50: 1.49 µM (active)
[16]
  AC50: 2.52 µM (active)
[17]
  AC50: 1.26 µM (active)
[18]
  AC50: 6.78 µM (active)

## CCOC(=O)c1c(-c2ccc(F)cc2)csc1NC(=O)CN1CCN(CC)CC1
[19]
  AC50: 42.5 µM (active)

## COc1cccc(C(=O)N2CNC(=O)C23CCN(CCNC(=O)c2ccc4ccccc4c2)CC3)c1
[20]
  IC50: 2.05 µM (active)
[21]
  IC50: 19 µM (active)

## CCCCCCCCCCCCCCCCCCNC(=O)OC1CCN(C(=O)OC[C@H](COC(=O)N(Cc2cccc[n+]2CC)C(=O)c2ccccc2OC)OC)CC1 [MINOPAFANT]
[22]
  IC50: 9.52 µM (inactive)
[23]
  IC50: > 10 µM (inactive)
[24]
  IC50: 13.8 µM (inactive)
[25]
  IC50: 21.7 µM (inactive)
[26]
  IC50: > 10 µM (inactive)
